Non-standard residues stand in square brackets, D forms with d. Residues, ends and D or L forms follow the SMILES beside them. No end group written: not given here.
Key:
[1] = target: T1, Ras-GAP interaction (Bos taurus, UniProt P09851); test: Ras-GAP interaction inhibition assay (GAP-stimulated Ras GTPase, charcoal adsorption); assay type: biochemical, bovine; settings: concentration of peptide required to reduce GAP stimulated Ras-GTP hydrolysis by 50%; 10 fmol GAP, 240 fmol Ha ras p21-GTP, 4 minutes at 24°C
T1 construct: made in house; host or cells: GAP: E. coli JM109 (plasmid pYO); Ha-Ras: E. coli RRllaci^q (plasmid pRas[Gly12 Ala59])
T1 sequence (P09851 1-1044): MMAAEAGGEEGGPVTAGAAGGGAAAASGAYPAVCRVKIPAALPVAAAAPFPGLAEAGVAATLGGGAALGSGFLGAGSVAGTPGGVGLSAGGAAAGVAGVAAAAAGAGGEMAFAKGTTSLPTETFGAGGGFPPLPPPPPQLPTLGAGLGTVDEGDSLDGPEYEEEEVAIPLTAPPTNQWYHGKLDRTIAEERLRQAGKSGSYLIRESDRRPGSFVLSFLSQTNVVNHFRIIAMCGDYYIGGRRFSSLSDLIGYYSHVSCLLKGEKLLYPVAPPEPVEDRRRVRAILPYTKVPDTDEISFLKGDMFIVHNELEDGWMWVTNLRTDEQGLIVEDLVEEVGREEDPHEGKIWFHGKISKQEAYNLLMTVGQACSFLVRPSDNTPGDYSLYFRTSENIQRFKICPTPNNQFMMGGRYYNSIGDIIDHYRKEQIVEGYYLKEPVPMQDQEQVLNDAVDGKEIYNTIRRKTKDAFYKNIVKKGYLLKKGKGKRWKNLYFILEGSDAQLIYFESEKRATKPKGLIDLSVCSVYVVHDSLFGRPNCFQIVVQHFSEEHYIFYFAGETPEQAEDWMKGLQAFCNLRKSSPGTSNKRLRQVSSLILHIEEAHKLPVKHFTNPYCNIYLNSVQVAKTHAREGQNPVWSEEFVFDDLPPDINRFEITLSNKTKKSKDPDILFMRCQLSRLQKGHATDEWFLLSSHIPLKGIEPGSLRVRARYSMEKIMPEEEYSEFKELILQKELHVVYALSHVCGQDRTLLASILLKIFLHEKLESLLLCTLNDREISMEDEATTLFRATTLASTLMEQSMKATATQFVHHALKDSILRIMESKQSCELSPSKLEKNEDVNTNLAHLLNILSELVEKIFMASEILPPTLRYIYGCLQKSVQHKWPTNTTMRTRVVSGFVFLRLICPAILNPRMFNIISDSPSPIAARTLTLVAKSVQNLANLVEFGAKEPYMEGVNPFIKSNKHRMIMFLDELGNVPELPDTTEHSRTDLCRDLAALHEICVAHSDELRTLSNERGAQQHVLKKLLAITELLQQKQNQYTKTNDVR
Experimental: The activity of the synthetic peptides of the present invention, as inhibitors of the interaction of ras with GAP was determined in an assay which measures GAP dependent, Ras GTPase activity. Bovine GAP was either purified from fresh bovine brains or recombinantly produced in E. coli. It is understood that the methods of the present invention may utilize either the recombinant full length GAP or the bovine brain derived GAP. In addition, GAP from other species, such as human and mouse, may be substituted for bovine GAP since they share about 95% amino acid homology. Truncated recombinant forms of GAP are also suitable for use in the Ras-GAP interaction assay [Marshall, M.S., et al., (1989), EMBO J., 8, pp1105-1110]. However, for the screening of synthetic peptides for their ability to block the Ras-GAP interaction, the recombinant, full length GAP is preferred.
The Ras protein utilized in the Ras-GAP GTPase assay of the present invention is Harvey ras (Ha-ras). It is understood that other forms of Ras protein are suitable for use in the present invention. Other suitable forms of Ras protein include, but are not limited to, Kirsten Ras, yeast S. cerevisiae RAS, and N-Ras. Furthermore, it is readily apparent to those skilled in the art that any form of Ras protein which is capable of interacting with GAP is suitable for use in the Ras-GAP GTPase assay.
Ras GTPase activity was measured by the charcoal adsorption procedure. Each 50 µL reaction contained 10 fmol purified GAP, 240 fmol Ha ras p21-[γ ³²P] GTP and 1 mg/mL BSA in buffer D. Varying amounts of the competing peptides were added as indicated. Prewarmed reactions (24°C) were initiated by the addition of GAP, then incubated for 4 minutes at 24°C. The reactions were terminated by the addition of 5 volumes of ice cold 5% activated charcoal (Sigma: HCl washed) in 50 mM NaH₂PO₄. GTPase activity was quantitated by measuring the free ³²P-orthophosphate in the cleared supernatant after centrifugation of the charcoal mix. GAP-stimulated Ras GTPase activity in the absence of competitors was 40-60 fmol Ras-GTP hydrolyzed; the 100% control value. In the absence of GAP, GTP hydrolysis was not detectable during the incubation period of the assay. Inhibitors of this assay block GAP-stimulated Ras GTPase without impairing intrinsic Ras GTPase, assayed in the absence of GAP following incubation at 24°C for one hour.
(§1) Ras peptides were dissolved in either 100% dimethyl formamide (DMF, American Burdick and Jackson) or 100% dimethyl sulfoxide (DMSO, Fluka UV-spectroscopy grade) at a calculated peptide concentration of 1-4 mM. Following 1 minute in a Sonicor SC-200 bath sonicator at room temperature, the peptide solutions were vortexed, and then centrifuged for 5 minutes at room temperature in an Eppendorf microfuge to remove any undissolved material. 20 µL of the cleared peptide solutions were then added to 80 µL of Buffer D in a dilution series covering a range of peptide concentrations from 0.02 µM up to the maximum solubility limit for each peptide. In each dilution, the solvent concentration was maintained at 20%. These peptides solutions were then centrifuged for 5 minutes at room temperature at 10,000 x g, and the cleared supernatants were divided into 2 parts. One part of each cleared peptide dilution was used in a GAP competition assay: 40 µL was added to a 5 µL solution containing 0.1 mg/mL BSA plus 240 fmol Ha-ras p21-[γ-³²P]GTP. Reactions were initiated upon addition of 5 µL of diluted GAP (10 fmol), and analyzed as described above.

[2] = assay type: physicochemical
Experimental: as §1
The other portion of the cleared peptide solution was measured spectrophotometrically to determine solubility and concentration of the peptides. Extinction coefficients were determined by measuring the absorbance at 277 nm of 2 peptides whose exact concentrations were quantitated by amino acid analysis. The extinction coefficients for peptide Ras 17-37 dissolved in buffer D/20% DMF or peptide Ras 91-103 (SEQ ID NO:14)dissolved in water/20% DMSO, were 2580 cm⁻¹M⁻¹ and 2230 cm⁻¹ M⁻¹, respectively. These values were used to determine the exact concentration for each peptide used at each point in the competition assay. In addition, peptide solubility was confirmed by comparing the light scattering at 600 nm for each peptide solution measured before and after centrifugation. Only concentrations reflecting 100% solubility were used in the dose response curves, and the maximum concentration used for each peptide competitor indicates the limit of solubility for that peptide.

[3] = target: T2, S. cerevisiae adenylyl cyclase (Ras Dependent, strain FlD reconstituted with purified Ras) (Saccharomyces cerevisiae, UniProt P08678); test: Yeast adenylyl cyclase assay, reconstitution of FlD membranes with purified Ras protein; assay type: biochemical; settings: part B, FlD membranes with 5 µM purified Ras protein, peptide 10 µM
T2 construct: Since these membranes contain adenylyl cyclase, but are lacking Ras protein; endogenous in cells; host or cells: membranes of S. cerevisiae strain FlD
T2 sequence (P08678 whole entry): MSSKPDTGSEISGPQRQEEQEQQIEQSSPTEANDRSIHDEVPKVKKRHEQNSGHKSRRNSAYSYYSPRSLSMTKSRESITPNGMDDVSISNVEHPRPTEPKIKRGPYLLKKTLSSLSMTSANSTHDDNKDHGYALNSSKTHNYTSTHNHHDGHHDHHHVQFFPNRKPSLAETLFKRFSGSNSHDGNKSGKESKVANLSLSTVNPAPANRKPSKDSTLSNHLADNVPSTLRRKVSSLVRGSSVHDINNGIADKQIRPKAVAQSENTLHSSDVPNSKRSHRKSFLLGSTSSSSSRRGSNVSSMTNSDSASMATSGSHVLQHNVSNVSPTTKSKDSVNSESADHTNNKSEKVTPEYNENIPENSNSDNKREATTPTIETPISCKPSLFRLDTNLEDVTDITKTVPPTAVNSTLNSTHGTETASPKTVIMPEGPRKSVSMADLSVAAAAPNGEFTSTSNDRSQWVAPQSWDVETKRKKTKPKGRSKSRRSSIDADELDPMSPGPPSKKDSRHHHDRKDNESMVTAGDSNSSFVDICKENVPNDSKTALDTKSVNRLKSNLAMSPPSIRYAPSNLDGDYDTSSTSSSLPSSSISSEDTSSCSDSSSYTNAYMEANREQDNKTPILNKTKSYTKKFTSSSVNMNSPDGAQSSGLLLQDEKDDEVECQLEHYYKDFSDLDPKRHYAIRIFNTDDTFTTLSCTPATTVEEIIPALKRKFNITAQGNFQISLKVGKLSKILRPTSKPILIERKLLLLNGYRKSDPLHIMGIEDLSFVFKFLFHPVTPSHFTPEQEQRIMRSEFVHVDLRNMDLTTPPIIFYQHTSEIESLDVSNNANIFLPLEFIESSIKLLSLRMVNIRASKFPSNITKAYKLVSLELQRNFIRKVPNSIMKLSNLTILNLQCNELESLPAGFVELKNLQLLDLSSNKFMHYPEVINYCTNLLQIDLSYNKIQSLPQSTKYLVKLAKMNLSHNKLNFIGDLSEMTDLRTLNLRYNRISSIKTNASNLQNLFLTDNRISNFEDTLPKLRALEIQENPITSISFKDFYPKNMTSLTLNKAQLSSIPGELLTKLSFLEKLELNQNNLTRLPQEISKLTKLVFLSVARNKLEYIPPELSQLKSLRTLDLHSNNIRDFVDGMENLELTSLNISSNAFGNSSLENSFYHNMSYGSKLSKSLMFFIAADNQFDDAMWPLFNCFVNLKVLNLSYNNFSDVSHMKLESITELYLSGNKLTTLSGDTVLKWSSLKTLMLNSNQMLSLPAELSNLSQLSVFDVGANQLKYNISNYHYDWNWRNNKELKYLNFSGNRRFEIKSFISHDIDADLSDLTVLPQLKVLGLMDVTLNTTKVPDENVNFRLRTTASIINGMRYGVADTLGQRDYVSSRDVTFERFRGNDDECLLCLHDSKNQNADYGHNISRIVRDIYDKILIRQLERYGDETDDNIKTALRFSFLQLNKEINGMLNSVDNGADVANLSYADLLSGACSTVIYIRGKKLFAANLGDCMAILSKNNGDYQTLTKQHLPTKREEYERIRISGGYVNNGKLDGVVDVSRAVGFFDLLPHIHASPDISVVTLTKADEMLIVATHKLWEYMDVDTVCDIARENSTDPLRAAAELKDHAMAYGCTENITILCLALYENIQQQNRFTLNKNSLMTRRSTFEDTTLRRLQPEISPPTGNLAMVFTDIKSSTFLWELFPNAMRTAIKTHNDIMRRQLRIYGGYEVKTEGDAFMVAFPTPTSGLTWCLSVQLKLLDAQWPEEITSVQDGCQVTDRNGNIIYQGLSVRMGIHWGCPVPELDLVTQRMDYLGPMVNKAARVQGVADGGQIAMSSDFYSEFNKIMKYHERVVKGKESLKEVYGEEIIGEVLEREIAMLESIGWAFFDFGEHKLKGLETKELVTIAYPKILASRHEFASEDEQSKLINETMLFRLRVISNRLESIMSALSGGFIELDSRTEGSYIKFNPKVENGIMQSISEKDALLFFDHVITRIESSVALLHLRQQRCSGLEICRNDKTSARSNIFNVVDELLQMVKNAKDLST
Excerpt: Another Ras-dependent enzymatic assay was used to extend the observed ability of the peptides of the present invention to inhibit Ras function. This system, yeast adenylyl cyclase assay, measures the Ras-dependent conversion of ATP into cyclic AMP (cAMP). […] Furthermore, in S. cerevisiae, regulation of cAMP metabolism appears to be a major function of Ras. This assay system was used to extend the observed Ras inhibitory activity of the peptides of the present invention, to a Ras function which is GAP-unrelated. S. cerevisiae strain FlD lacks functional Ras proteins, however FlD cells have functional adenylyl cyclase in their cell membrane. […] Similarly, a recombinant S. cerevisiae strain MY1186, lacks yeast Ras proteins but expresses mammalian Ras protein which functions with adenylyl cyclase to regulate cAMP metabolisim in the yeast cells. […] In contrast, S. cerevisiae strain JC377-10B contains a mutant form of adenylyl cyclase which constitutively converts ATP into cAMP with or without Ras.
Ras peptides were tested at the indicated concentrations for inhibition of S. cerevisiae adenylyl cyclase activity. […] Ras-independent activity was assayed with membranes from strain JC377-10B (ras-minus, constitutively active adenylyl cyclase).
Yeast strain FlD, MY1186 and JC377-10B, were grown in YEHD medium at 30°C. Membrane fractions were prepared from cultures grown to an A₆₆₀ of 0.5 to 1.0 by glusulase digestion [Casperson, G.F. et al., (1983), J. Biol. Chem., 258, pp. 7911-7914], Dounce homogenization of the spheroplasts in buffer containing 50 mM sodium MES [2(N-morpholino) ethanesulfonic acid] […] Adenylyl cyclase assays (100-µL reaction volume) measured the conversion of [α-³²P]ATP to [³²P]cAMP at 30°C, using 50 µg to 100 µg of membrane protein in assays using membranes from yeast strains MY1186 and JC377-10B.. […] Since these membranes contain adenylyl cyclase, but are lacking Ras protein, stimulation of adenylyl cyclase activity may be measured following reconstitution with purified Ras complexed with GTP. […]

| Compound | IC50* [1] | Maximum Solubility [2] | IC50 [1] | %Inhibition of Adenylyl Cyclase Activity Ras Dependent [3] |
| --- | --- | --- | --- | --- |
| CC[C@H](C)[C@H](NC(=O)[C@H](CC(C)C)NC(=O)[C@H](CCC(N)=O)NC(=O)[C@@H](NC(=O)[C@@H](NC(=O)[C@H](CC(C)C)NC(=O)[C@H](C)NC(=O)[C@@H](N)CO)[C@@H](C)O)[C@@H](C)CC)C(=O)N[C@@H](CCC(N)=O)C(=O)N[C@@H](CC(N)=O)C(=O)O [Ras 17-26] | no inhibition | 600 µM |  |  |
| CC[C@H](C)[C@H](NC(=O)[C@H](CC(C)C)NC(=O)[C@H](CCC(N)=O)NC(=O)[C@@H](NC(=O)[C@@H](NC(=O)[C@H](CC(C)C)NC(=O)[C@H](C)NC(=O)[C@@H](N)CO)[C@@H](C)O)[C@@H](C)CC)C(=O)N[C@@H](CCC(N)=O)C(=O)N[C@@H](CC(N)=O)C(=O)N[C@@H](Cc1c[nH]cn1)C(=O)N[C@@H](Cc1ccccc1)C(=O)N[C@H](C(=O)N[C@@H](CC(=O)O)C(=O)N[C@@H](CCC(=O)O)C(=O)N[C@@H](Cc1ccc(O)cc1)C(=O)N[C@@H](CC(=O)O)C(=O)N1CCC[C@H]1C(=O)N[C@H](C(=O)N[C@H](C(=O)N[C@@H](CCC(=O)O)C(=O)N[C@@H](CC(=O)O)C(=O)N[C@@H](CO)C(=O)N[C@@H](Cc1ccc(O)cc1)C(=O)N[C@@H](CCCNC(=N)N)C(=O)N[C@@H](CCCCN)C(=O)N[C@@H](CCC(N)=O)C(=O)N[C@H](C(=O)O)C(C)C)[C@@H](C)CC)[C@@H](C)O)C(C)C [Ras 17-44] |  | 200 µM | 2.4 µM |  |
| CC[C@H](C)[C@H](NC(=O)[C@H](CC(C)C)NC(=O)[C@H](CCC(N)=O)NC(=O)[C@@H](NC(=O)[C@@H](NC(=O)[C@@H](N)CC(C)C)[C@@H](C)O)[C@@H](C)CC)C(=O)N[C@@H](CCC(N)=O)C(=O)N[C@H](CC(N)=O)C(=O)N[C@@H](Cc1c[nH]cn1)C(=O)N[C@@H](Cc1ccccc1)C(=O)N[C@H](C(=O)N[C@@H](CC(=O)O)C(=O)N[C@@H](CCC(=O)O)C(=O)N[C@@H](Cc1ccc(O)cc1)C(=O)O)C(C)C [Ras 19-32(D-Asn)] (H-LTIQLIQ[dN]HFVDEY-OH) |  | 12 µM | 0.2 µM |  |
| N[C@@H](CC(=O)O)C(=O)N[C@@H](CCC(=O)O)C(=O)N[C@@H](Cc1ccc(O)cc1)C(=O)O [Ras 30-32] (H-Asp-Glu-Tyr-OH) | no inhibition | 800 µM |  |  |
| EELTIQLIQNHFVDEYD-NH2 [Ras 19-33(3)] |  | 225 µM | 50 µM |  |
| EYDPTIEDSYRKQ [Ras 31-43] | no inhibition | 446 µM |  |  |
| GQEEYSAMRDQYMRTGE [Ras 60-76, reference compound] |  |  |  | 6 ± 1% |
| IQLIQNHFVDEY [Ras 21-32] |  | 120 µM | 70 µM |  |
| LTIQIQNHFVDE [Ras 19-31(1)] |  | >1000 µM | 36 µM |  |
| LTIQLIQNHFVDE [Ras 19-31] |  | >1000 µM | 48 µM |  |
| LTIQLIQNHFVDEY [Ras 19-32] |  | 48 µM | 0.4 µM |  |
| LTIQLIQNHFVDEYD [Ras 19-33] |  | 23 µM | 1.4 µM |  |
| MRTRVVSGFVFLRLIGPAILNPR [GAP 888-910(Gly903)] |  | 800 µM |  |  |
| NHFVDEY [Ras 26-32] |  | 800 µM | 350 µM |  |
| SALTIQLIQNHFV [Ras 17-29] | no inhibition | 20 µM |  |  |
| TIQLIQNHFVDEY [Ras 20-32] |  | 110 µM | 18 µM |  |

From patent EP0496162A2, “Peptide inhibitors of RAS-GAP interaction” (MERCK & CO. INC., priority 1990, dated 1992)
